Measurements as given in patent US12491170B2, “Stable treprostinil prodrugs” (United Therapeutics Corporation, priority 2020, dated 2025).
Read-outs that look alike come from different tables or passages of the source. Each block holds one compound with its values, some of them ahead of it.

What was measured:
[1] = molecular target: prostaglandin I2 (PGI2) receptor (IP) (Homo sapiens, UniProt P43119); experiment: IP receptor cAMP agonist assay (CHO-K1 cells); assay type: cell-based; conditions: relative to treprostinil EC50 values, * partial agonists or ambiguous dose-response curves
Sequence of prostaglandin I2 (PGI2) receptor (IP) (P43119 whole entry): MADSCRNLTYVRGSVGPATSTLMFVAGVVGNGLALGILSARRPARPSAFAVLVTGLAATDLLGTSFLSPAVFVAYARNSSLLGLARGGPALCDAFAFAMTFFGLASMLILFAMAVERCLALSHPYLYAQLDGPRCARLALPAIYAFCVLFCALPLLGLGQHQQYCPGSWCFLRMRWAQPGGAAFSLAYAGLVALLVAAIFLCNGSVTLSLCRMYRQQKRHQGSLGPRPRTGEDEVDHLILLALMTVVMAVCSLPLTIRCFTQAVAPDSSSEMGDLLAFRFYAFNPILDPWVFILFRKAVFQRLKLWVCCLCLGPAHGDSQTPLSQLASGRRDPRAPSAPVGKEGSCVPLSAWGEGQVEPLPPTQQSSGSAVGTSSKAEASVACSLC
Procedure: (§1) Cyclic AMP assay kit: Multiscreen™ TR-FRET cAMP 1.0 No Wash Assay Kit (Multispan, Inc.)
(§2) Cells were thawed from frozen cells and resuspended in assay buffer at desired concentrations. cAMP or Calcium assays were performed according to the manufacturer's protocol using Multiscreen™ TR-FRET cAMP 1.0 No Wash Assay Kit or Multiscreen™ Calcium 1.0 No Wash Kit.
(§3) Gas Cyclic AMP (cAMP) Assay: In agonist mode testing, cells were seeded in a 384-well plate at an appropriate density and then were treated with compounds and incubated at 37° C. for 20 minutes. The reaction was terminated by […] trFluor™ Eu-labeled cAMP and trFluor™ 650-labeled anti-cAMP antibody in lysis buffer. […] All testing wells contained 0.1% DMSO in the final concentrations.
(§4) Data in graphs are represented in Mean±SD. Dose-dependent responses were fitted with sigmoidal dose-response curves allowing variable slopes using GraphPad Prism version 6 (Graphpad Prism).
(§5) These studies used cell lines overexpressing either human IP, EP2 or DP1, or EP1 receptors, and following incubation with varying concentrations of compounds, cAMP levels were measured using Fluorescence Resonance Energy Transfer (FRET).

[2] = molecular target: prostaglandin E2 (PGE2) receptor 2 (EP2) (Homo sapiens, UniProt P43116); experiment: EP2 receptor cAMP agonist assay (HEK293T cells); assay type: cell-based; conditions: for EP2 Relative to Tre: Table 22, relative to treprostinil EC50 values, * partial agonists or ambiguous dose-response curves
Sequence of prostaglandin E2 (PGE2) receptor 2 (EP2) (P43116 whole entry): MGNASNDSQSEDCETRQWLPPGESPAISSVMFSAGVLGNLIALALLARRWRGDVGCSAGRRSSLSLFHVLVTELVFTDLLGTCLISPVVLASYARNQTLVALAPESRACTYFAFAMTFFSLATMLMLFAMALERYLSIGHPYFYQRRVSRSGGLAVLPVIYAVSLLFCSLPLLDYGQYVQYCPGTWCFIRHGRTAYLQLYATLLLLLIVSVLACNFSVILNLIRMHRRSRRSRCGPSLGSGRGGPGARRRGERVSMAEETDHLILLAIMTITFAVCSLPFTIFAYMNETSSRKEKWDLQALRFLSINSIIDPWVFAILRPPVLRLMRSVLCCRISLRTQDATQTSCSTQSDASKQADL
Procedure: as §1, §2, §3, §4, §5

[3] = molecular target: T1, prostaglandin D2 (PGD2) receptor 1 (DP1) (Homo sapiens, UniProt Q13258); experiment: DP1 receptor cAMP agonist assay (HEK293T cells); assay type: cell-based; conditions: for DP1 Relative to Tre: relative to treprostinil EC50 values, * partial agonists or ambiguous dose-response curves
T1 sequence (Q13258 1-359): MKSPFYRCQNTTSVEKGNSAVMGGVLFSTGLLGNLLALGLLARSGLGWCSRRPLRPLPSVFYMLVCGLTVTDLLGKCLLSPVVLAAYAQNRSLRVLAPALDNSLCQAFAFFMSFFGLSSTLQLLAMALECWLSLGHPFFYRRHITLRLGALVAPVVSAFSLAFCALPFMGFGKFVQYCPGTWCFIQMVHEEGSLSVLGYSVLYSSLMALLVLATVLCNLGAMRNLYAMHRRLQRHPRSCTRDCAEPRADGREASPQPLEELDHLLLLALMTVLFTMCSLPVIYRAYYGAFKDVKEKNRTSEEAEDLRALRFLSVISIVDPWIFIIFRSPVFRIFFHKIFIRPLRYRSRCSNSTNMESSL
Procedure: as §1, §2, §3, §4, §5

PGE2 receptor 1 (EP1) = molecular target: T2, PGE2 receptor 1 (EP1) (Homo sapiens, UniProt P34995); experiment: EP1 receptor calcium agonist assay (HEK293T cells); assay type: cell-based; conditions: Table 22; relative to treprostinil EC50 values; * partial agonists or ambiguous dose-response curves
T2 sequence (P34995 1-402): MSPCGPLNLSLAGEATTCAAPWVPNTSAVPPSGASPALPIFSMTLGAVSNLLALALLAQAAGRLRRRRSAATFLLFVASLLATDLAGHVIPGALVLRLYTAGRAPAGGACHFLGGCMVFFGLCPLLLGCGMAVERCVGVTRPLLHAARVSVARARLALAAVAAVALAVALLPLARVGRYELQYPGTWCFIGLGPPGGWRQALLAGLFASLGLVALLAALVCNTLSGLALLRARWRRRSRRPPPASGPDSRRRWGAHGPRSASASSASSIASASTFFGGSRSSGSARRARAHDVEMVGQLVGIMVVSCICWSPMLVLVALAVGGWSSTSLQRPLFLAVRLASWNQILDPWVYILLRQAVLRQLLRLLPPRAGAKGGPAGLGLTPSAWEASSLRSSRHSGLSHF
Procedure: Calcium assay kit: Multiscreen™ Calcium 1.0 No Wash Kit (Multispan, Inc., Cat #MSCA01-1)
• EP1 Calcium and DP1 cAMP Assays: HBSS plus 20 mM HEPES • EP2 and IP1 cAMP Assays: 1 mM IBMX in HBSS plus 20 mM HEPES Instruments: FlexStation III (Molecular Devices) and FLIPR 384 (Molecular Devices)
as §2
Calcium Assay: Cells were seeded in a 384-well plate at an appropriate density. The calcium assay was conducted according to the manufacturer's protocols (Multiscreen Calcium 1.0 No Wash Assay Kit). The calcium dye loading buffer was added to the cells and incubated for 1 hour at 37° C. For agonist mode, cells were injected with Iloprost control agonist or test compound by FLIPR and calcium mobilization was monitored for 180 seconds with compound injected into the wells at the 19th second. Fluorescent emissions were read at 525 nm with excitation at 490 nm in a FLIPR 384 instrument (Molecular Devices).
Calcium Assay: Calcium assay results are expressed as “RFU” as defined in figure below. Data are represented in Mean±SEM. Dose-response curves were fitted using “Sigmoidal dose-response (variable slope)” function in GraphPad Prism 6. EC50 values were calculated based on the fitted curves.
Prostaglandin receptor activity assessments with treprostinil and treprostinil analogues have been conducted, and a historical, positive control agonist for these receptors, iloprost (for IP, EP2 and EP1) or PGD2 (for DP1), was also included. These studies used cell lines overexpressing either human IP, EP2 or DP1, or EP1 receptors, and following incubation with varying concentrations of compounds, cAMP levels were measured using Fluorescence Resonance Energy Transfer (FRET). The 665/620 (acceptor/donor emission signals) ratio is inversely proportional to the concentration of cAMP.

[4] = Stability in liver microsomes, human
[5] = Stability in liver microsomes, rat
[6] = Stability in liver microsomes, dog
[7] = Stability in cryopreserved hepatocytes, human
[8] = Stability in cryopreserved hepatocytes, rat
[9] = Stability in cryopreserved hepatocytes, dog
[10] = Stability in human subcutaneous skin homogenate
[11] = rat
[12] = dog
[13] = Hydrolysis of prodrugs to treprostinil at pH 6, 7, 8 and 40 C; assay type: physicochemical
Source text: Tables 24, 25 and 26 present data for hydrolysis of selected treprostinil prodrugs at pH 6, 7 and 8, respectively, and 40 C.

IP Relative to Tre ([1]; Table 22): 527x
EP2 Relative to Tre [2]: 26x
DP1 Relative to Tre ([3]; Table 22): 73x
EP1 Relative to Tre (PGE2 receptor 1 (EP1)): 133x*
Compound: CCCCCC(CCC1C(O)CC2Cc3c(cccc3OCC(=O)O)CC21)OCOC(=O)C(C)(C)C (stereo not drawn) [Prodrug LII]

Trep Concentration 0 min [4]: 0 µM
Trep Concentration 10 min [4]: 0.0147 µM
Trep Concentration 20 min [4]: 0 µM
Trep Concentration 30 min [4]: 0.0153 µM
Trep Concentration 60 min [4]: 0.00987 µM
AUC ([4]; human): 0.60 µmol·min/L
Trep Concentration 0 min [5]: 0 µM
Trep Concentration 10 min [5]: 0 µM
Trep Concentration 20 min [5]: 0 µM
Trep Concentration 30 min [5]: 0 µM
Trep Concentration 60 min [5]: 0 µM
Trep Concentration 0 min [6]: 0.0163 µM
Trep Concentration 20 min [6]: 0.0295 µM
Trep Concentration 30 min [6]: 0.0273 µM
Trep Concentration 60 min [6]: 0.0415 µM
Trep Concentration (μM) 0 min [7]: 0 µM
Trep Concentration (μM) 15 min [7]: 0.0481 µM
Trep Concentration (μM) 30 min [7]: 0.041 µM
Trep Concentration (μM) 60 min [7]: 0.0715 µM
Trep Concentration (μM) 120 min [7]: 0.115 µM
AUC ([7]; human): 8.31 µmol·min/L
Trep Concentration (μM) 0 min [8]: 0 µM
Trep Concentration (μM) 15 min [8]: 0.0136 µM
Trep Concentration (μM) 30 min [8]: 0.0199 µM
Trep Concentration (μM) 60 min [8]: 0.106 µM
Trep Concentration (μM) 120 min [8]: 0.0527 µM
AUC ([8]; rat): 7.00 µmol·min/L
Trep Concentration (μM) 0 min [9]: 0 µM
Trep Concentration (μM) 15 min [9]: 0.0424 µM
Trep Concentration (μM) 30 min [9]: 0.0879 µM
Trep Concentration (μM) 60 min [9]: 0.147 µM
Trep Concentration (μM) 120 min [9]: 0.248 µM
AUC ([9]; dog): 16.67 µmol·min/L
Trep Concentration 0 min [10]: 0 µM
Trep Concentration 30 min [10]: 0 µM
Trep Concentration 60 min [10]: 0.0137 µM
Trep Concentration 120 min [10]: 0.0304 µM
AUC ([10]; human): 1.53 µmol·min/L
AUC [11]: 0.00 µmol·min/L
AUC [12]: 1.72 µmol·min/L
Compound: CCCCCC(CCC1C(O)CC2Cc3c(cccc3OCC(=O)O)CC21)OC(=O)CCN (stereo not drawn) [XXXVII]

AUC ([10]; human): 2.744 µmol·min/L
Mono AUC (treprostinil formed) ([10]; human): 2.744 µmol·min/L
Percent Remaining (Avg, n = 3) 0 min ([10]; pooled human skin homogenate, 1 μM, 37° C., 0 min): 100%
Percent Remaining (Avg, n = 3) 30 min ([10]; pooled human skin homogenate, 1 μM, 37° C., 30 min): 86.2%
Percent Remaining (Avg, n = 3) 60 min ([10]; pooled human skin homogenate, 1 μM, 37° C., 60 min): 71.2%
Percent Remaining (Avg, n = 3) 120 min ([10]; pooled human skin homogenate, 1 μM, 37° C., 120 min): 64.0%
IP Relative to Tre ([1]; Table 22): 208x
IP Relative to Tre ([1]; Table 23): 208x
Activity at the EP2 receptor compared to treprostinil ([2]; summary of findings): inactive
DP1 Relative to Tre ([3]; Table 22): 217x
DP1 Relative to Tre ([3]; Table 23): 217x
Activity at the DP1 receptor compared to treprostinil ([3]; summary of findings): several hundred-fold less active
Hydrolysis to treprostinil, % Area, t = 1 week ([13]; pH 6, 40 C.): 0.00 % Area
Hydrolysis to treprostinil, % Area, t = 2 weeks ([13]; pH 6, 40 C.): 0.00 % Area
Hydrolysis to treprostinil, % Area, t = 3 weeks ([13]; pH 6, 40 C.): 0.00 % Area
Hydrolysis to treprostinil, % Area, t = 1 week ([13]; pH 7, 40 C.): 0.00 % Area
Hydrolysis to treprostinil, % Area, t = 2 weeks ([13]; pH 7, 40 C.): 0.00 % Area
Hydrolysis to treprostinil, % Area, t = 3 weeks ([13]; pH 7, 40 C.): 0.00 % Area
Hydrolysis to treprostinil, % Area, t = 1 week ([13]; pH 8, 40 C.): 0.00 % Area
Hydrolysis to treprostinil, % Area, t = 2 weeks ([13]; pH 8, 40 C.): 0.00 % Area
Hydrolysis to treprostinil, % Area, t = 3 weeks ([13]; pH 8, 40 C.): 0.00 % Area
Compound: treprostinil diphosphate [Prodrug LXXIII]

IP Relative to Tre ([1]; Table 22): 535x
EP2 Relative to Tre [2]: 11x
DP1 Relative to Tre ([3]; Table 22): 18x
EP1 Relative to Tre (PGE2 receptor 1 (EP1)): 30x
Compound: CCCCC[C@H](O)CC[C@@H]1[C@H]2Cc3cccc(OCC(=O)OCC)c3C[C@H]2C[C@H]1O [Treprostinil ethyl ester, reference compound]
